Results taken from US11781110B2, “Induction of corneal endothelial cells” (The Regents of the University of California, priority 2016, dated 2023).

How the values were obtained:
[1] = tested on: corneal endothelial cells (CECs); details: cited from earlier work
[2] = tested on: EFSCs; assay: Directed differentiation of eye field stem cells into ocular neural crest stem cells; format: cell-based, human; details: 3 μM in NCSC induction medium; after a week of induction
Protocol: Directed differentiation of eye field stem cells into ocular neural crest stem cells. […] The in vitro derivation of neural crest stem cells from PSCs has been previously described (Chambers et al., 2013; Lee et al., 2007). It was reasoned that, if EFSCs could be primed toward ocular neural crest lineage, the cells could serve as a direct and renewable source to generate CECs in culture. To direct EFSCs toward neural crest fate, EFSCs were seeded at low density, and neural crest lineage specification was initiated in NCSC induction medium supplemented with the presence of 3 μM CHIR 99021. […] Immunostaining also detected the expression of nuclear translocation of beta-catenin (FIG. 4C), an indication of increased WNT canonical signaling during neural crest formation.

[3] = tested on: EFSC-derived NCSCs; assay: Differentiation of CECs from ocular neural crest stem cells; format: cell-based, human; details: added to the differentiation medium
Protocol: Differentiation of CECs from ocular neural crest stem cells. In order to test if CECs could be induced from the EFSC-derived NCSCs directly in vitro, NCSCs were seeded at low cell density on an FNC coated plate. […] They remained proliferative and formed a relatively homogenous monolayer of cells after a few passages (FIG. 5B). To further characterize the NCSC-derived CEC sheets, immunostaining for several typical CEC markers including tight junction protein 1 (TJP1/ZO-1), N-Cadherin, and Na+/K+ ATPase was performed (FIG. 5C).

[4] = tested on: rabbit corneal endothelium; assay: Rabbit corneal endothelium injury model; format: in vivo; details: compared
[5] = tested on: CEC; assay: CEC migration, proliferation and wound healing with ROCK inhibitor; format: cell-based; details: compared with Y-27632

C[C@@H](N)[C@H]1CC[C@H](C(=O)Nc2ccncc2)CC1 [Y-27632]
apoptosis of CECs [1]: inhibition of apoptosis | proliferation of corneal endothelial cells (CECs) [1]: increased proliferation | corneal endothelial wound healing ([1]; in vitro and in vivo): enhanced corneal endothelial wound healing

Cc1c[nH]c(-c2cnc(NCCNc3ccc(C#N)cn3)nc2-c2ccc(Cl)cc2Cl)n1 [CHIR 99021]
expression of NCSC surface marker HNK-1 [2]: majority of EFSCs start to express a typical NCSC surface marker HNK-1

Cc1cncc2cccc(S(=O)(=O)N3CCCNC[C@@H]3C)c12 [H-1125]
effect on differentiation of CECs [3]: improve the differentiation of CECs | wound healing effect [4]: better wound healing effect | effect on CEC migration, proliferation and wound healing [5]: more significant stimulatory effect
